Measurements taken from patent US20180030500A1, “ENRICHMENT AND SELECTIVE CULTURE OF MYCOBACTERIA” (priority 2015, published 2018).
Like-named read-outs stand apart in the source and are kept apart here.

Experiments:
[1] = tested on: Mycobacteria; conditions: 20 strains, 7 days
[2] = tested on: Pseudomonas aeruginosa; conditions: 50 strains, 7 days
[3] = tested on: Burkholderia multivorans (645914C); test: Sensitivity to C-390 in medium W; type: cell-based; design: key: NG: no growth; Tr: traces
Description: (§1) An evaluation of the sensitivity to C-390 of various microorganisms capable of infecting the airways was carried out. This evaluation was carried out using medium W of example 4, containing a variable concentration of C-390. Table 10 below collates the observations collected with regard to the intensity of growth of the strains tested as a function of the C-390 concentration of the medium. The abbreviations NG (“no growth”) and Tr (“traces”) signify that no growth was observed or only a few not very significant traces.

[4] = tested on: Burkholderia cenocepacia (LMG 18832); test: Sensitivity to C-390 in medium W; type: cell-based; design: key: NG: no growth; Tr: traces
Description: as §1

[5] = tested on: Burkholderia multivorans (LMG 18822); test: Sensitivity to C-390 in medium W; type: cell-based; design: key: NG: no growth; Tr: traces
Description: as §1

[6] = tested on: Burkholderia anthina (20983); test: Sensitivity to C-390 in medium W; type: cell-based; design: key: NG: no growth; Tr: traces
Description: as §1

[7] = tested on: Scedosporium prolificans (Anon); test: Sensitivity to C-390 in medium W; type: cell-based; design: key: NG: no growth; Tr: traces
Description: as §1

[8] = tested on: Burkholderia ambifaria (LMG 19467); test: Sensitivity to C-390 in medium W; type: cell-based; design: key: NG: no growth; Tr: traces
Description: as §1

[9] = tested on: Burkholderia cenocepacia (640328); test: Sensitivity to C-390 in medium W; type: cell-based; design: key: NG: no growth; Tr: traces
Description: as §1

[10] = tested on: Fusarium oxysporum (ENV); test: Sensitivity to C-390 in medium W; type: cell-based; design: key: NG: no growth; Tr: traces
Description: as §1

[11] = tested on: Enterobacteria; conditions: 7 strains, 7 days
[12] = selective agent 32 mg/l in medium L
[13] = selective agent 64 mg/l in medium L
[14] = selective agent 128 mg/l in medium L

With CCN(CC)c1ccc(C2(Cl)c3ccccc3N(c3ccccc3)c3ccccc32)cc1 [Medium C-390, 9-chloro-9-(4′-diethylamino)phenyl-9,10-dihydro-10-phenylacridine] the “Number of strains having shown growth” value [1, 12] was 19, the “Percentage of strains having shown growth” value (from here on “Percentage”) [1, 12] was “(95%)” and the “Number of strains having shown growth” value [1, 13] was 19. For the same molecule, the “Percentage” value [1, 13] was “(95%)”, the “Number of strains having shown growth” value [1, 14] was 19 and the “Percentage” value [1, 14] was “(95%)”. For the same molecule, the “Number of strains having shown growth” value [2, 12] was 46, the “Percentage” value [2, 12] was “(92%)” and the “Number of strains having shown growth” value [2, 13] was 45. For the same molecule, the “Percentage” value [2, 13] was “(90%)”, the “Number of strains having shown growth” value [2, 14] was 35 and the “Percentage” value [2, 14] was “(70%)”. For the same molecule, the intensity of growth ([3]; C-390 2 mg/l in medium W) was “NG”, the intensity of growth ([3]; C-390 4 mg/l in medium W) was “NG” and the intensity of growth ([3]; C-390 8 mg/l in medium W) was “NG”. The intensity of growth ([3]; C-390 16 mg/l in medium W) was “NG”, the intensity of growth ([3]; C-390 32 mg/l in medium W) was “NG” and the intensity of growth ([4]; C-390 8 mg/l in medium W) was “NG”. The intensity of growth ([4]; C-390 16 mg/l in medium W) was “NG”, the intensity of growth ([4]; C-390 32 mg/l in medium W) was “NG” and the intensity of growth ([5]; C-390 4 mg/l in medium W) was “NG”. The intensity of growth ([5]; C-390 8 mg/l in medium W) was “NG”, the intensity of growth ([5]; C-390 16 mg/l in medium W) was “NG” and the intensity of growth ([5]; C-390 32 mg/l in medium W) was “NG”. For the same molecule, the intensity of growth ([6]; C-390 1 mg/l in medium W) was “Tr”, the intensity of growth ([6]; C-390 2 mg/l in medium W) was “NG” and the intensity of growth ([6]; C-390 4 mg/l in medium W) was “NG”. For the same molecule, the intensity of growth ([6]; C-390 8 mg/l in medium W) was “NG”, the intensity of growth ([6]; C-390 16 mg/l in medium W) was “NG” and the intensity of growth ([6]; C-390 32 mg/l in medium W) was “NG”. The intensity of growth ([7]; C-390 0.5 mg/l in medium W) was “NG”, the intensity of growth ([7]; C-390 1 mg/l in medium W) was “NG” and the intensity of growth ([7]; C-390 2 mg/l in medium W) was “NG”. The intensity of growth ([7]; C-390 4 mg/l in medium W) was “NG”, the intensity of growth ([7]; C-390 8 mg/l in medium W) was “NG” and the intensity of growth ([7]; C-390 16 mg/l in medium W) was “NG”. For the same molecule, the intensity of growth ([7]; C-390 32 mg/l in medium W) was “NG”, the intensity of growth ([8]; C-390 0.5 mg/l in medium W) was “NG” and the intensity of growth ([8]; C-390 1 mg/l in medium W) was “NG”. For the same molecule, the intensity of growth ([8]; C-390 2 mg/l in medium W) was “NG”, the intensity of growth ([8]; C-390 4 mg/l in medium W) was “NG” and the intensity of growth ([8]; C-390 8 mg/l in medium W) was “NG”. The intensity of growth ([8]; C-390 16 mg/l in medium W) was “NG”, the intensity of growth ([8]; C-390 32 mg/l in medium W) was “NG” and the intensity of growth ([9]; C-390 16 mg/l in medium W) was “NG”. For the same molecule, the intensity of growth ([9]; C-390 32 mg/l in medium W) was “NG”, the intensity of growth ([10]; C-390 8 mg/l in medium W) was “NG” and the intensity of growth ([10]; C-390 16 mg/l in medium W) was “NG”. For the same molecule, the intensity of growth ([10]; C-390 32 mg/l in medium W) was “NG”, the “Number of strains having shown growth” value [11, 12] was 0 and the “Number of strains having shown growth” value [11, 13] was 0. The “Number of strains having shown growth” value [11, 14] was 0.
